Laboratory results as given in patent US20070037253A1, “Methods and compositions for treatment of arthritis and cancer” (priority 2003, published 2007).
Where a SMILES comes first, the peptide text is derived from it.

Experiments:
[1] = biological target: collagenase I (MMP-1); assay: Collagenase activity assay, collagen thin film (collagen type II substrate); assay type: biochemical; conditions: collagen thin film method, FIG. 2; read-out: IC50 (mean±SD), collagenase I (MMP-1)
Method: Collagenase activity was assayed by collagen thin film method using collagen type II as substrate. IC50 values were graphically determined from the inhibition curves, constructed on the basis of the in vitro results of collagenase assays. Results are the mean±SD of 3 separate experiments done in triplicates. (•), P-NT.II; (□), PIP [59-67] dimer; (Δ), PIP [59-67} monomer; (∇), LY 315920.
Collagenase activity assay: Using collagen thin film as the substrate, a quantitative method was established to measure the enzymatic activity of the MMPs (principally collagenase). Collagen type II (Sigma) solution (4 μL, 3 mg/mL in 0.012 N HCl) was added to each well of 96-well plates and precipitated by slowly increasing the pH with 4 μL of H2O and 8 μL of 0.012 N NaOH. The plate was dried at 23° C. for 24 hr, washed with H2O, and dried again at 23° C., resulting in a thin film containing 12 μg of collagen that was tightly bound to the bottom of the wells. Enzymatic reactions of the collagenase I (with and without peptide inhibitors) against the collagen films were carried out in quadruplicate at 24° C. for 16 h. The digested portion of the film was washed away, while the undigested portion was fixed for 3 h with 0.1% Coomassie brilliant blue R in 10% acetic acid and 45% methanol, and the wells washed and dried.

[2] = biological target: T1, secreted MMP-2 (Oryctolagus cuniculus, UniProt P50757); assay: Secreted gelatinase activity of IL-1β-stimulated rabbit synovial fibroblasts treated with peptide (FIG. 4B); assay type: cell-based; conditions: cells treated with 1-10 μM peptide, IL-1β stimulation
T1 construct: endogenous in cells; host or cells: HIG-82 rabbit fibroblast-like synoviocytes (ATCC CRL-1832)
T1 sequence (P50757 110-662): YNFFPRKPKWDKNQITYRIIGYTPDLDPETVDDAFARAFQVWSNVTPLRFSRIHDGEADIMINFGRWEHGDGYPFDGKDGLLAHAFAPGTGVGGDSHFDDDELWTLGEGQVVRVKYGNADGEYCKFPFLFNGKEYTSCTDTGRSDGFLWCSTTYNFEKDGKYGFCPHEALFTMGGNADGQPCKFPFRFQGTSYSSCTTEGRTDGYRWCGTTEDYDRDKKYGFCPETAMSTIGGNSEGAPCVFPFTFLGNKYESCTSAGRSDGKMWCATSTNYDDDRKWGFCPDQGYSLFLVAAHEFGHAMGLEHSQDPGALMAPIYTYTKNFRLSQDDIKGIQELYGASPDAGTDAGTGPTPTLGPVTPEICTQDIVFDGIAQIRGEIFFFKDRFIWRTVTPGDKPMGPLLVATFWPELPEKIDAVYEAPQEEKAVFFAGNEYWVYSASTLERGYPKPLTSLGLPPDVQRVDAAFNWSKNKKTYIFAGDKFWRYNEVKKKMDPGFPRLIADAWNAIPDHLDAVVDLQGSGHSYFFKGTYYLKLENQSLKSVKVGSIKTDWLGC
Method: Gelatinase activity in the supernatants from cells induced with IL-1β (5 ng) for 48 h was analyzed by gelatin zymography. (A) Supernatants (activated with final 1 mM APMA at 30° C. for 30 min) were pre-incubated with various inhibitors. (5 μM peptides or 1-2 μM Calbiochem MMP inhibitor II) for 1 h at 25° C. prior to zymographic analyses—Lane 1, without activation (no inhibitor); Lane 2, with activation (no inhibitor); Lanes 3-8, with activation plus inhibitor: 3, P-NT-II; 4, PIP [59-67] monomer; 5, PIP [57-67] dimer; 6, PIP [59-67] dimer; 7 and 8, positive control MMP Inhibitor II (Calbiochem) at 1 and 2 μM concentrations. (B) Rabbit synovial fibroblasts were stimulated by IL-1β in the presence or absence of 1-10 μM of PIP [59-67] dimer for 48 h. Culture supernatants were concentrated by centrifugation (Centricon centrifugal filter devices, M.W. cutoff 30,000) and activated with APMA (1 mM final) before measurement of gelatinase activity by gelatin zymography. Lanes: 1 (−peptide−APMA); 2 (−peptide+APMA); 3 (+1 μM peptide+APMA); 4 (+5 μM peptide+APMA); 5 (+7.5 μM peptide+APMA); 6 (+10 μM peptide+APMA).
Gelatin zymography: human synovial fluid, purified human recombinant MMP-2 and -9 or APMA-activated concentrated culture supernatant samples (10 μL) was mixed (1:1) with Laemmli sample buffer, loaded on 4% acrylamide stacking gel and electrophoresed (120 V) at 4° C. on a 10% acrylamide-resolving minigel containing 0.1% gelatin. After electrophoresis for 1 h, the gels were soaked in 2.5% Triton X-100 on a shaker for 1 h, changing the solution after 30 min, to eliminate SDS. After overnight incubation in zymogen activation buffer [50 mM Tris-HCl, pH 7.5, containing 10 mM CaCl2 and 5 mM ZnCl2] at 37° C., the gels were rinsed in distilled water, and stained for 3 hr with […], after which clear bands of digested gelatin were clearly visible. The gels were briefly rinsed in distilled water and scanned by the Bio-Rad GS-710 Calibrated Imaging Densitometer.
FLSC culture and inhibition of extracellular MMP activity: All experiments were performed on HIG-82 rabbit fibroblast-like synoviocytes (FLSCs) obtained from American Type Culture Collection (Manassas, Va.; catalogue No. CRL-1832). FLSCs were grown in Ham's F-12 medium containing 10% fetal bovine serum (FBS) and 1% penicillin/streptomycin, as recommended by the supplier. For experimental purposes, FLSCs were seeded into 12-well plates, grown to near confluence, and then serum starved (Ham's F-12 without FBS or penicillin/streptomycin) for 16 h. […] After activation with APMA (1 mM final concentration), the samples were measured for MMP-1 activity using BIOMOL AK-404 QuantiZyme Assay system, and for MMP-2 and -9 activities by gelatin zymography.

## CC[C@H](C)[C@H](NC(=O)[C@H](CC(=O)O)NC(=O)[C@@H](N)C(C)C)C(=O)N[C@@H](Cc1c[nH]cn1)C(=O)N[C@H](C(=O)N[C@@H](Cc1c[nH]c2ccccc12)C(=O)N[C@@H](CC(=O)O)C(=O)NCC(=O)N[C@H](C(=O)N[C@H](C(=O)N[C@@H](CC(=O)O)C(=O)N[C@H](C(=O)N[C@@H](Cc1c[nH]cn1)C(=O)N[C@H](C(=O)N[C@@H](Cc1c[nH]c2ccccc12)C(=O)N[C@@H](CC(=O)O)C(=O)NCC(=O)N[C@H](C(=O)O)C(C)C)C(C)C)[C@@H](C)CC)C(C)C)C(C)C)C(C)C [PIP [59-67] dimer] (H-VDIHVWDGVVDIHVWDGV-OH; N-terminus and C-terminus assumed)
[1]
  IC50: 7.75 ± 1.11 µM
[2]
  activity of secreted MMP-2: failed to inhibit
[2]; listed as dimerized peptide
  activity of secreted MMP-2: less marked
